Test results as given in PMC11513892, “Discovery of a Series of Macrocycles as Potent Inhibitors of Leishmania Infantum” (Journal of Medicinal Chemistry, 2024).
Like-named read-outs stand apart in the source and are kept apart here.

What was measured:
[1] = test system: MDR1; test: in vitro; format: in vitro ADME, canine; settings: dog; for Papp B→A: MDCK-MDR1, pH 7.4; for Papp A→B: MDCK-MDR1, pH 7.4, Papp AB
Procedure: (§1) The potency of macrocycles 1–12 to inhibit the growth of L. infantum was determined in a phenotypic assay in which the parasite was grown in primary peritoneal mouse macrophages (PMMs). To understand whether the SAR for inhibition of parasitic growth is impacted by low cell permeability, the permeability of compounds 1–12 was determined separately. Madin-Darby canine kidney (MDCK) cells transfected with the human MDR1 (multidrug resistance 1) gene (MDCK-MDR1 cells) were used to determine permeabilities in the apical to basolateral direction (Papp AB) as well as efflux ratios (ERs). […] Lipophilicity (Log D at pH 7.4), aqueous kinetic solubility and mouse liver microsomal metabolism were also determined for 1–12, and are discussed separately (cf. physiochemical properties and ADMET, below).
(§2) The kinetic solubility in phosphate buffered saline at pH 7.4, chromatographic Log D at pH 7.4, cell permeability across a MDCK-MDR1 cell monolayer at pH 7.4, and the clearance in mouse liver microsomes of 1–12 was determined at TCG Lifesciences.

[2] = Chromatographic Log D at pH 7.4; format: physicochemical; settings: 1-octanol/PBS pH 7.4, determined by chromatography, mean of two measurements
Procedure: as §2

[3] = Clearance in human microsomes; format: in vitro ADME; settings: CSV supplement
Text: Supplement jm4c01370_si_002.csv, table | column: CLint in vitro Human Microsomes µL/min/mg; t(1/2) min

[4] = Clearance in mouse liver microsomes; format: in vitro ADME; settings: for microsomal CLint: mouse, liver microsomes
Procedure: as §2

[5] = test system: T. b. rhodesiense; test: Growth of T. b. rhodesiense trypomastigotes in axenic culture; format: cell-based, Trypanosoma brucei rhodesiense; settings: for EC50: Trypanosoma brucei
Text: (§3) We previously reported the synthesis of a series of macrocycles, including 1 (Figure 2A), designed to investigate how structural features influence molecular chameleonicity.[15],[21] Originating from the structural similarities between 1 and hymenocardine, we investigated 1 in screens for P. falciparum and four kinetoplastid parasites: T. b. brucei, T. b. rhodesiense, T. cruzi, and L. infantum. In the screens, we also included compounds 2 and 3 (Figure 2A), which were obtained from an intermediate late in the synthetic route to 1. Since very few validated protein targets relevant to clearance of parasites are known, phenotypic assays were used to investigate the antiparasitic activity for all five parasites. For malaria, the P. falciparum blood stage 3D7 strain was used to test the three compounds. For the two Trypanosoma brucei species, the reduction in trypomastigote growth in culture medium was determined after the addition of 1–3. For T. cruzi, the intracellular parasite growth in infected human fibroblasts (MRC-5 cell line) was assessed in the presence and absence of the three inhibitors. Similarly, the growth of L. infantum was assessed in infected primary mouse macrophages (PMMs) in the presence and absence of the inhibitors. […] The assays for T. cruzi and L. infantum are complex, i.e., they determine the degree of inhibition of parasitic replication in a mammalian cell line; this complexity may lead to a high variability for some compounds.
(§4) The growth of the P. falciparum blood stage 3D7 strain,[53] the two T. brucei species in axenic cultures,[54]T. cruzi in infected human fibroblasts (MRC-5 cell line),[55] and of L. infantum in infected primary mouse macrophages (PMMs)[56] was determined as previously reported in the presence and absence of inhibitors 1–12.

[6] = test system: T. cruzi; test: Intracellular growth of T. cruzi in infected human fibroblasts (MRC-5 cell line); format: cell-based; settings: Trypanosoma cruzi
Text: as §3, §4

[7] = test system: MRC-5 cells; test: Host cell cytotoxicity in MRC-5 cells; format: cell-based, human; settings: CSV supplement; decimal comma
[8] = test system: L. infantum; test: Growth of L. infantum in infected primary mouse macrophages (PMMs), phenotypic assay; format: cell-based, Leishmania infantum; settings: for EC50: Leishmania infantum, Macrophage; for loss in potency compared to 3, L. infantum: relative to compound 3
Text: as §3, §1, §4

[9] = test system: T. b. brucei; test: Growth of T. b. brucei trypomastigotes in axenic culture; format: cell-based; settings: Trypanosoma brucei
Text: as §3, §4

[10] = test system: primary mouse macrophages (PMMs); test: Host cell cytotoxicity in primary mouse macrophages (PMM); format: cell-based; settings: CSV supplement; decimal comma
[11] = Kinetic solubility in phosphate buffered saline at pH 7.4; format: physicochemical
Procedure: as §2

[12] = MDCK-MDR1, pH 7.4, ER, efflux ratio (BA/AB)
[13] = MDCK-MDR1, pH 7.4, MDCK MDR1 - pH 7.4 Efflux Ratio
[14] = CSV supplement, read-out: CLint in vitro Mouse Microsomes
[15] = incubation with mouse liver microsomes, read-out: CLint
[16] = RHODESIENSE / STIB900, CSV supplement, decimal comma, read-out: EC50 T.b. rhodesiense STIB 900
[17] = TULAHUEN, MRC5, read-out: EC50 T. cruzi Tulahuen C4 (LacZ)
[18] = Table 1, mean (standard deviation, number of measurements), read-out: EC50 (μM), inhibition of the growth of L. infantum
[19] = CSV supplement, decimal comma, read-out: EC50 T.b. brucei Squib 427
[20] = phosphate buffered saline, pH 7.4, CSV supplement, read-out: Kinetic solubility
[21] = phosphate buffered saline, pH 7.4, phosphate buffered saline pH 7.4, assay range 2.5–200 μM, read-out: solubility (kinetic)
[22] = RHODESIENSE, Table S1, mean (SD), 2 to 14 measurements, unit not given in Table S1, read-out: In vitro potency, T. b. rhodesiense
[23] = CSV supplement, decimal comma, read-out: EC50 L. infantum MHOM/MA(BE)/67
[24] = Table S1, mean (SD), 2 to 14 measurements, unit not given in Table S1, read-out: In vitro potency, T. b. brucei
[25] = MRC5, Table S1, mean (SD), 2 to 14 measurements, unit not given in Table S1, read-out: In vitro potency, T. cruzi

SMILES | Papp B→A [1] [nm/s] | efflux ratio [1, 12] | efflux ratio [1, 13] | Papp A→B [1] [nm/s] | chromatographic logD [2] | t(1/2), Mouse Microsomes ([4]; CSV supplement) | microsomal CLint [4, 14] [µL/min/mg] | microsomal CLint [4, 15] [µL/min/mg] | EC50 [5, 16] [µM] | EC50 [6, 17] [µM] | MRC-5 cells Human Lung Fibroblast Cells (cytotoxicity) [7] [µM] | EC50 [8, 18] [µM] | EC50 [9, 19] [µM] | PMM Primary Mouse Macrophages (inf-LMPH) (cytotoxicity) [10] [µM] | solubility kinetic [11, 20] [mg/mL] | solubility kinetic [11, 21] [µM] | EC50 [5, 22] [µM] | EC50 [8, 23] [µM] | loss in potency compared to 3, L. infantum [8] [fold] | EC50 [9, 24] [µM] | also measured
CC(C)C[C@@H]1NC(=O)[C@@H](NC(=O)OC(C)(C)C)Cc2ccc(cc2)Oc2ccc(cc2NC(=O)c2ccccn2)C(=O)CNC1=O [Compound 10, tert-Butyl ((8S,11S)-8-Isobutyl-4,7,10-trioxo-3^2-(picolinamido)-2-oxa-6,9-diaza-1,3(1,4)-dibenzenacyclododecaphane-11-yl)carbamate] | 68 | 3.1 | 3.1 | 22 | 4.8 | <3 min | > 578 | > 580 | 2.1 | 50 | >64 | 2.1 | 8.5 | >64 | 0.0048 | 7.6 | – | – | – | – | t(1/2), Human Microsomes [3]: 4,8 min; microsomal CLint ([3]; human, microsomes, read-out: CLint in vitro Human Microsomes): 361 µL/min/mg; activity as inhibitor of T. b. rhodesiense (in words) ([5]; text on Table S1): moderately active
CC(=O)N[C@H]1Cc2ccc(cc2)Oc2ccc(cc2NC(=O)c2ccccn2)C(=O)CNC(=O)[C@H](Cc2ccccc2)NC1=O [Compound 11] | 178 | – | – | 11 | 3.2 | 12,9 min | 134 | 130 | 23.6 | 33 | >64 | 38 | 26.8 | >64 | 0.0583 | 96 | 24 | 37.5 | > 20 | 36 | efflux ratio ([1]; MDCK-MDR1, pH 7.4, CSV supplement, pH 7.4, read-out: MDCK MDR1 - pH 7.4 Efflux Ratio): 15.7; efflux ratio ([1]; MDCK-MDR1, pH 7.4, MDCK-MDR1 cell monolayer, read-out: ER, efflux ratio (BA/AB)): 16
CC(C)(C)C(=O)N[C@H]1Cc2ccc(cc2)Oc2ccc(cc2NC(=O)c2ccccn2)C(=O)CNC(=O)[C@H](Cc2ccccc2)NC1=O [Compound 12, tert-Butyl ((8S,11S)-8-Benzyl-4,7,10-trioxo-11-pivalamido-2-oxa-6,9-diaza-1,3(1,4)-dibenzenacyclododecaphane-3^2-yl)picolinamide] | 318 | 21 | 20.8 | 15 | 4.4 | <3 min | > 578 | > 580 | 21.3 | > 64 | >64 | 7.1 | 30.4 | >64 | 0.0103 | 16 | 21 | – | – | 30 | EC50 [6, 25]: 64 µM
CCCCCCCCCCCCCCCCOP(=O)([O-])OCC[N+](C)(C)C [Miltefosine, miltefosine, reference compound] | – | – | – | – | – | – | – | – | – | – | – | 6.1 | – | – | – | – | – | – | – | – | –
CC(C)(C)OC(=O)N[C@H]1Cc2ccc(cc2)Oc2ccc(cc2NC(=O)c2ccccn2)C(=O)CNC(=O)[C@@H](Cc2ccccc2)NC1=O [Compound 8, tert-Butyl ((8R,11S)-8-Benzyl-4,7,10-trioxo-3^2-(picolinamido)-2-oxa-6,9-diaza-1,3(1,4)-dibenzenacyclododecaphane-11-yl)carbamate] | 223 | 7.6 | 7.6 | 29 | 4.8 | <3 min | > 578 | > 580 | 6.4 | 6.1 | >64 | 8.2 | 8.1 | >64 | 0.0019 | 2.9 | – | – | – | – | –
C[C@@H]1NC(=O)[C@@H](NC(=O)OC(C)(C)C)Cc2ccc(cc2)Oc2ccc(cc2NC(=O)c2ccccn2)C(=O)CNC1=O [Compound 7, tert-Butyl ((8S,11S)-8-Methyl-4,7,10-trioxo-3^2-(picolinamido)-2-oxa-6,9-diaza-1,3(1,4)-dibenzenacyclododecaphane-11-yl)carbamate] | 393 | 28 | 28.3 | 14 | 3.5 | 5,8 min | 297 | 300 | 9.7 | 35.5 | >64 | 16 | 49 | >64 | 0.0737 | > 100 | – | 15.5 | ~10 | – | EC50 [6, 25]: 36 µM; solubility kinetic ([11]; phosphate buffered saline pH 7.4, assay range 2.5–200 μM, read-out: solubility (kinetic)): 126 µM
